Where two headings read alike, the source gives them in different places.
How the values were obtained:
[1] = tested on: human ovarian carcinoma cells (1A9); assay: Antiproliferative assay (GI50, MTS); type: cell-based; conditions: for antiproliferative potency / GI50 values (in words): Table 1 (1A9 and mutant lines)
Experimental: (§1) Representative analogs were examined for their antiproliferative activities against human ovarian carcinoma 1A9 cells and their paclitaxel-resistant mutants, 1A9/Ptx10 and 1A9/Ptx22.
[…] Cells were maintained in RPMI medium with 10% FBS in it, plated in tissue culture plates, and allowed to grow for 48-72 h before transferring them into 96-well plates. Cells were allowed to attach and grow for 48 h in 96-well plates after which they were treated with either control (DMSO) or drug in triplicate/quadruplicate. Cells were incubated with the compounds for 72 h. Cells were treated with MTS reagent before reading the plate in a Dynamax plate reader for determining the cell number. The fifty percent growth inhibition values (GI50 values) were calculated for the compounds against all the three cell lines.

[2] = tested on: microtubules (tubulin polymer); assay: Radiolabeled ligand binding assays; conditions: for potency relative to 1 in inhibiting the binding of radiolabeled paclitaxel to microtubules: relative to dictyostatin 1
Experimental: The abilities of test agents to inhibit the binding of radiolabeled forms of the microtubule stabilizers paclitaxel, discodermolide and epothilone B from tubulin polymer were determined.
[^3H]Paclitaxel, [^3H]discodermolide and [^14C]epothilone B solutions were prepared as 125 μM stock solutions in 50% DMSO. Radiolabeled compound (final concentration, 4.0 μM) and test agents at final concentrations noted in the text and tables were mixed in 50 μL of 4:1 (v/v) 0.75 M aqueous MSG/DMSO and warmed to 37° C. Meanwhile, a reaction mixture containing 0.75 M MSG, 2.5 μM tubulin, and 25 μM ddGTP was prepared and incubated at 37° C. for 30 min to form microtubuless. A 200 μL aliquot of the microtubule mixture was added to the drug mixtures, and incubation continued for 30 min at 37° C. Reaction mixtures were centrifuged in an Eppendorf 5417C centrifuge at 14,000 rpm for 20 min at room temperature. Radiolabel in the supernatants (100 μL) was determined by scintillation spectrometry.

[3] = tested on: 1A9/Ptx10 (Phe270 −> Val) β-tubulin mutant cells; assay: Antiproliferative assay (GI50, MTS), paclitaxel-resistant clone; type: cell-based, human; conditions: for fold-resistance: 1A9/Ptx10 versus parental 1A9
Experimental: as §1
(§2) The effects of dictyostatin and its analogs on growth inhibition of parental ([…]) and paclitaxel-resistant (1A9/Ptx10 and Ptx22) ovarian adenocarcinoma cell lines were evaluated following the antiproliferative assay protocol as described earlier (Minguez et al., 2003; Choy et al., 2003; Lazo et al., 2001). Cells were maintained in RPMI medium with 10% FBS in it, plated in tissue culture plates, and allowed to grow for 48-72 h before transferring them into 96-well plates. Cells were allowed to attach and grow for 48 h in 96-well plates after which they were treated with either control (DMSO) or drug in triplicate/quadruplicate. Cells were incubated with the compounds for 72 h. Cells were treated with MTS reagent before reading the plate in a Dynamax plate reader for determining the cell number. The fifty percent growth inhibition values (GI50 values) were calculated for the compounds against all the three cell lines.

[4] = tested on: 1A9/Ptx22 (Ala364 −> Thr) β-tubulin mutant cells; assay: as above; type: cell-based, human; conditions: for fold-resistance: 1A9/Ptx22 versus parental 1A9
Experimental: as §1, §2

[5] = Homo sapiens, Ovarian carcinoma cell, 72 h, read-out: GI50 ± S.D., 1A9 parental cells, 72 h incubation
[6] = test agent 4 μM, radiolabel 4.0 μM, 37° C.
[7] = Homo sapiens, 1A9/ptx-10, 72 h, read-out: GI50 ± S.D., 1A9/Ptx10 (Phe270 −> Val), 72 h incubation
[8] = Homo sapiens, 1A9/ptx-22, 72 h, read-out: GI50 ± S.D., 1A9/Ptx22 (Ala364 −> Thr), 72 h incubation

| Compound | GI50 [1, 5] [nM] | antiproliferative potency / GI50 values (in words) [1] | potency relative to 1 in inhibiting the binding of radiolabeled paclitaxel to microtubules [2] | Percent inhibition of radiolabel from microtubules, [3H]Paclitaxel [2, 6] | fold-resistance [3] [fold] | GI50 [3, 7] [nM] | fold-resistance [4] [fold] | GI50 [4, 8] [nM] | GI50 ([1]; read-out: GI50 ± S.D., 1A9 parental cells, 72 h incubation) [nM] | GI50 ([3]; read-out: GI50 ± S.D., 1A9/Ptx10 (Phe270 −> Val), 72 h incubation) [nM] | GI50 ([4]; read-out: GI50 ± S.D., 1A9/Ptx22 (Ala364 −> Thr), 72 h incubation) [nM] | Percent inhibition of radiolabel from microtubules, [3H]Discodermolide [2, 6] | Percent inhibition of radiolabel from microtubules, [14C]Epothilone B [2, 6] |
| --- | --- | --- | --- | --- | --- | --- | --- | --- | --- | --- | --- | --- | --- |
| C=C/C=C\[C@H](C)[C@H](O)[C@@H](C)[C@H](O)CC[C@H](C)C[C@H](C)[C@@H](O)[C@@H](C)/C=C\[C@@H](O)C[C@H](O)[C@H](C)/C=C/C=C\C(=O)OC [Compound 50, (2Z,4E,6R,7S,9S,10Z,12S,13R,14S,16S,19R,20S,21S,22S,23Z)-Methyl-7,9,13,19,21-penta-hydroxy-6,12,14,16,20,22-hexamethylhexacosa-2,4,10,23,25-pentaenoate] | 56 ± 16 | mid-nanomolar range | ca. 60% | 42 ± 1 (3) % | 1.4 | 79 ± 13 | 1.5 | 85 ± 2 |  |  |  |  |  |
| C=CC=CC(C)C1OC(=O)C=CC=CC(C)C(O)CC(O)C=CC(C)C(O)C(C)CC(C)CCC(O)C1C [Compound 59, (8S,10S,14R,20S)-Tetrahydroxy-(7R,13S,15S,17S,21s)-pentamethyl-(22S)-((1S)-methylpenta-2,4-dienyl)-oxacyclodocosa-3,5,11-trien-2-one] |  | mid-nanomolar range |  | 7 ± 2 (3) % | 5.7 |  | 2.0 |  | 21 ± 14 | 120 ± 60 | 43 ± 12 |  |  |
| C=CC=CC(C)C1OC(=O)C=CC=CC(C)C(O)CC(O)C=CC(C)C(O)C(C)CCCCC(O)C1C [Compound 79, (8S,10S,14R,20R)-Tetrahydroxy-(7R,13S,15S,21S)-tetramethyl-(22S)-((1S)-methylpenta-2,4-dienyl)-oxacyclodocosa-3,5,11-trien-2-one] | 0.41 ± 0.52 | essentially equipotent to 1 | ca. 60% | 48 ± 3 (3) % | 1146 | 470 ± 70 | 14 | 5.6 ± 4.7 |  |  |  |  |  |
| C=C/C=C\[C@H](C)[C@@H]1OC(=O)/C=C\C=C\[C@@H](C)[C@@H](O)C[C@H](O)/C=C\[C@H](C)[C@H](O)[C@@H](C)C[C@@H](C)CC[C@@H](O)[C@@H]1C [dictyostatin-1, (8S,10S,14R,20R)-Tetrahydroxy-(7R,13S,15S,17S,21S)-pentamethyl-(22S)-((1S)-methylpenta-2,4-dienyl)oxacyclodocosa-3,5,11-trien-2-one, reference compound] | 0.69 ± 0.8 |  |  | 75 ± 5 (3) % | 4.6 | 3.2 ± 2.4 | 1.9 | 1.3 ± 1 |  |  |  | 40 ± 3 (3) % | 88 ± 1 (3) % |
| C=C/C=C\[C@H](C)[C@H](OC(N)=O)[C@@H](C)[C@H](O)[C@@H](C)C/C(C)=C\[C@H](C)[C@@H](O)[C@@H](C)/C=C\[C@@H](O)C[C@@H]1OC(=O)[C@H](C)[C@@H](O)[C@H]1C [discodermolide, reference compound] | 1.7 ± 1.2 |  |  | 76 ± 6 (4) % | 3.6 | 6.2 ± 3.6 | 4.1 | 7 ± 8.4 |  |  |  |  | 90 ± 1 (3) % |

Reference: patent US7321046B2, “Analogs of dictyostatin, intermediates therefor and methods of synthesis thereof” (University of Pittsburgh, priority 2002, dated 2008)
